In brackets after ≈: the same amount, converted by molar mass.
How the values were obtained:
Test in all cases: MIC in microtitre plates, brain-heart infusion broth
Format in all cases: cell-based
[1] = tested on: Staphylococcus aureus 1756; details: about 10^5 microorganisms/ml inoculum
Excerpt: (§1) The determination of the "minimum inhibitory concentrations" (MIC) was effected in mitrotitre plates using brain-heart infusion broth, with about 10^5 microorganisms/ml being employed as the inoculum.

[2] = tested on: Escherichia coli Neumann; details: about 10^5 microorganisms/ml inoculum
Excerpt: as §1

[3] = tested on: Enterococcus faecalis 27101; details: about 10^5 microorganisms/ml inoculum
Excerpt: as §1

[4] = tested on: Klebsiella sp. 63; details: about 10^5 microorganisms/ml inoculum
Excerpt: as §1

[5] = tested on: Enterococcus faecalis 9790; details: about 10^5 microorganisms/ml inoculum
Excerpt: as §1

[6] = tested on: Staphylococcus aureus 133; details: about 10^5 microorganisms/ml inoculum
Excerpt: as §1

[7] = tested on: Staphylococcus aureus ICB 25701; details: ICB25701, about 10^5 microorganisms/ml inoculum
Excerpt: as §1

[8] = tested on: Staphylococcus aureus ICB 25768; details: ICB25768, about 10^5 microorganisms/ml inoculum
Excerpt: as §1

[9] = tested on: Serratia marcescens 16040; details: about 10^5 microorganisms/ml inoculum
Excerpt: as §1

| MIC [1] [µg/mL] | MIC [2] [µg/mL] | MIC [3] [µg/mL] | MIC [4] [µg/mL] | MIC [5] [µg/mL] | MIC [6] [µg/mL] | MIC [7] [µg/mL] | MIC [8] [µg/mL] | MIC [9] [µg/mL] | SMILES |
| --- | --- | --- | --- | --- | --- | --- | --- | --- | --- |
| 0.004 (≈ 0.00543 µM) | 0.03 (≈ 0.0407 µM) | 0.25 (≈ 0.34 µM) | 0.125 (≈ 0.17 µM) | 0.25 (≈ 0.34 µM) | 0.03 (≈ 0.0407 µM) | 0.25 (≈ 0.34 µM) | 2 (≈ 2.72 µM) | 4 (≈ 5.43 µM) | O=C(Cc1ccccc1)N[C@@H]1C(=O)N2C(C(=O)O)=C(CN3CCC[C@H]4CN(c5c(F)cc6c(=O)c(C(=O)O)cn(C7CC7)c6c5Cl)C[C@H]43)CS[C@H]12 [A, 7-[2-([6R,7R ]-2-Carboxy-8-oxo-7-phenylacetylamino-5-thia-1-aza-bicyclo[4.2.0]oct-2-en-3-ylmethyl)-[1S,6S]-2,8-diazabicyclo[4.3.0]non-8-yl]-8-chloro-1-cyclopropyl-6-fluoro-1,4-dihydro-4-oxo-3-quinolinecarboxylic acid] |
| 0.03 (≈ 0.0431 µM) | 0.25 (≈ 0.359 µM) | 8 (≈ 11.5 µM) | 1 (≈ 1.44 µM) | 8 (≈ 11.5 µM) | 0.125 (≈ 0.18 µM) | 32 (≈ 46 µM) | 128 (≈ 184 µM) | 16 (≈ 23 µM) | O=C(Cc1ccccc1)N[C@@H]1C(=O)N2C(C(=O)O)=C(CN3CCN(c4c(F)cc5c(=O)c(C(=O)O)cn(C6CC6)c5c4Cl)CC3)CS[C@H]12 [B] |

Source: patent publication US5480879A, “Quinolonecarboxylic acids” (Bayer Aktiengesellschaft, priority 1992, dated 1996)
